Experimental data: ChEMBL document CHEMBL4706703, “Novel 3-benzylidene/benzylphthalide Mannich base derivatives as potential multifunctional agents for the treatment of Alzheimer's disease” (Bioorg Med Chem, 2021)
Calls of active or inactive are those of the source. The calls are words filed in the database; no cut-off is given here.

Legend:
[1] = target: T1, Amine oxidase [flavin-containing] B (Homo sapiens, UniProt P27338); assay: Inhibition of recombinant human MAOB at 10 uM using kynuramine as substrate preincubated for 30 mins followed by substrate addition and measured after 30 mins by fluorescence assay relative to control; settings: 0.5 h
T1 sequence (P27338 whole entry): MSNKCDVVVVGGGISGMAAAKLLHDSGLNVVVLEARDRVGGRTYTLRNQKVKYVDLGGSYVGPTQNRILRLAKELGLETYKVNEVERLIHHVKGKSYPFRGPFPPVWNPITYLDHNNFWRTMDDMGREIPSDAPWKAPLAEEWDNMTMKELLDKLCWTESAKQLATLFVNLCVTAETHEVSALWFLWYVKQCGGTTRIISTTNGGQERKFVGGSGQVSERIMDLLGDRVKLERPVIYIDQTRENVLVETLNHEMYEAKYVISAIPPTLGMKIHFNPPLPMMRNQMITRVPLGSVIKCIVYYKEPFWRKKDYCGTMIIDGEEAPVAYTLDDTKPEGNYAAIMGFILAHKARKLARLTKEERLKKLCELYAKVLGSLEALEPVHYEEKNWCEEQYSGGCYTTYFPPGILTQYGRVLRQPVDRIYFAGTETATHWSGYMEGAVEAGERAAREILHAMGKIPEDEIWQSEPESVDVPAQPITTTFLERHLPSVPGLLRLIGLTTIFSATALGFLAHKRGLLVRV

[2] = target: butyrylcholinesterase (BuChE) (Rattus norvegicus, UniProt Q9JKC1); assay: Inhibition of rat serum BuChE at 10 uM using butyrylthiocholine iodide as substrate incubated for 15 mins by Ellman's method relative to control; assay type: cell-free; settings: probe butyrylthiocholine iodide
Chain of butyrylcholinesterase (BuChE) (Q9JKC1 whole entry): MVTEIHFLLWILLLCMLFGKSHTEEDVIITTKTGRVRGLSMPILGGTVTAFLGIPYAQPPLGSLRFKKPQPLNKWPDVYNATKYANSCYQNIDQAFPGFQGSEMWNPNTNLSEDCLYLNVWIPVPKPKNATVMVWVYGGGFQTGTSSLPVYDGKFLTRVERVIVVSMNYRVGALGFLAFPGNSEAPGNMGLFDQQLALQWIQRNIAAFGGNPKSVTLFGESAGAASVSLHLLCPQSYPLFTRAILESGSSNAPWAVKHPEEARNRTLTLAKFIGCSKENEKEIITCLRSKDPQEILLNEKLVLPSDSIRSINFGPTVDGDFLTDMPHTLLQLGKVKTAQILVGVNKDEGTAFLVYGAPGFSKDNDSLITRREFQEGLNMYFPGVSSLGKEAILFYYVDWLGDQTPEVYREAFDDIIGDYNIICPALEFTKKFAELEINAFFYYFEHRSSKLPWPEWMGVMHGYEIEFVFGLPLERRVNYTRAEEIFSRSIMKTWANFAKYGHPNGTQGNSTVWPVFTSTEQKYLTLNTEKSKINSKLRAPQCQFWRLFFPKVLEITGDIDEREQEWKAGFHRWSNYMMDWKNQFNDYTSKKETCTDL

Acetylcholinesterase [3] = target: T2, Acetylcholinesterase (Homo sapiens, UniProt P22303); assay: Inhibition of human AChE using acetylthiocholine iodide as substrate incubated for 15 mins by Ellman's method
T2 sequence (P22303 whole entry): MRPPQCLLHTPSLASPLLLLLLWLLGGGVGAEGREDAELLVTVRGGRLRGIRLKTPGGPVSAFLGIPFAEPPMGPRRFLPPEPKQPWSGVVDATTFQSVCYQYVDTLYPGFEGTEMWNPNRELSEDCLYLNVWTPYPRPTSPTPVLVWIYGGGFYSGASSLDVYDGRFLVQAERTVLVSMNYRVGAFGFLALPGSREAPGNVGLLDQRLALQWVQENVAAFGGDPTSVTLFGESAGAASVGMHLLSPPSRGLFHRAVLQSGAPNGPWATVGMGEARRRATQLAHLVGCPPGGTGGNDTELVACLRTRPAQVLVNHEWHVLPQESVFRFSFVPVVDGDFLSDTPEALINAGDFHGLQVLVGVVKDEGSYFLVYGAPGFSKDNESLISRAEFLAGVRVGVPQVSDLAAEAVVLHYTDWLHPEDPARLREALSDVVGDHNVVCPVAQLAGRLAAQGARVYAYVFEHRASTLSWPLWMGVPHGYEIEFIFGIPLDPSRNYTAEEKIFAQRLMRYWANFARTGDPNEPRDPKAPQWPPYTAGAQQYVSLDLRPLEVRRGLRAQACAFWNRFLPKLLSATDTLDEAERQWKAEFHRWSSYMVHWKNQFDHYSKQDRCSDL

Acetylcholinesterase [4] = target: T3, Acetylcholinesterase (Electrophorus electricus, UniProt O42275); assay: Inhibition of Electrophorus electricus AChE using acetylthiocholine iodide as substrate incubated for 15 mins by Ellman's method
T3 sequence (O42275 whole entry): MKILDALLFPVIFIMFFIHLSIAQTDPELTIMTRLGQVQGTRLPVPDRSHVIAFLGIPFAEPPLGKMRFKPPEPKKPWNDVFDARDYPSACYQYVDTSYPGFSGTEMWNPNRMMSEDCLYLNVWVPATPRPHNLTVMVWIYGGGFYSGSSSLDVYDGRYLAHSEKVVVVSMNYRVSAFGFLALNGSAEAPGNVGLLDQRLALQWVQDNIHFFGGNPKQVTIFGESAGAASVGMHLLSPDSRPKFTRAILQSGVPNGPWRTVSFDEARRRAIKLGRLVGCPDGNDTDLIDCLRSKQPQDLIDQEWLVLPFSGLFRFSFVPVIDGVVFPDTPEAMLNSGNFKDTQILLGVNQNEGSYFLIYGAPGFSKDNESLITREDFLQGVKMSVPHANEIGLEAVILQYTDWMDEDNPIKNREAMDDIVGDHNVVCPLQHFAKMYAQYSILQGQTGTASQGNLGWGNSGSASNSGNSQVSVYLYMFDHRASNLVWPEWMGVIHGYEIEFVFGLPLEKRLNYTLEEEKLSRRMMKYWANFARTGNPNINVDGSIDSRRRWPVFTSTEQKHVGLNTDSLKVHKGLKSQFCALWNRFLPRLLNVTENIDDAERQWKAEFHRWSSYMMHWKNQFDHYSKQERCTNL

Plasma [5] = assay: Antiplatelet activity in rat platelet-rich plasma assessed as inhibition of ADP-induced platelet aggregation at 33 uM preincubated for 30 mins followed by ADP addition measured within 5 mins by aggregometry relative to control; assay type: functional; settings: time 30-35 min
[6] = Antioxidant activity assessed as trolox equivalent of AAPH radical scavenging activity measured every min for 90 mins by ORAC-FL assay; assay type: functional
MAO-A = target: T4, MAO-A (Homo sapiens, UniProt P21397); assay: Inhibition of recombinant human MAOA at 10 uM using kynuramine as substrate preincubated for 30 mins followed by substrate addition and measured after 30 mins by fluorescence assay relative to control; settings: probe kynuramine, time 60 min
T4 sequence (P21397 whole entry): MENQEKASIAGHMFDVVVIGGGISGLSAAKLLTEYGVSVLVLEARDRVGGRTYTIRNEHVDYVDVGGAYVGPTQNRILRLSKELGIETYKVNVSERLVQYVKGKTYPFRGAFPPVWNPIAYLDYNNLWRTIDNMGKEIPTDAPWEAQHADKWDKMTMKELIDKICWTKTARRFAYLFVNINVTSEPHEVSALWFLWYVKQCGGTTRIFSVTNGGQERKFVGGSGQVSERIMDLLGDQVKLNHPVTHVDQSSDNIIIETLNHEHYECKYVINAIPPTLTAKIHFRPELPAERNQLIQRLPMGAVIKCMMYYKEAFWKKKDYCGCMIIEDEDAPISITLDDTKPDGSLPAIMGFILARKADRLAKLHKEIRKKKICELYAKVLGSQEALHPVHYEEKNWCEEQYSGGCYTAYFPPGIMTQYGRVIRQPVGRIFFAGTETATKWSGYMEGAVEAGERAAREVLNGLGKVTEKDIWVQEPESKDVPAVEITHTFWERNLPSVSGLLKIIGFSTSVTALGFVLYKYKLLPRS

[7] = target: Amyloid-beta precursor protein (Homo sapiens) (UniProt P05067); assay: Inhibition of amyloid beta (1 to 42) (unknown origin) self aggregation at 25 uM after 24 hrs by thioflavin-T fluorescence method relative to control
Chain of Amyloid-beta precursor protein (Homo sapiens) (P05067 whole entry, the tested form may be a part): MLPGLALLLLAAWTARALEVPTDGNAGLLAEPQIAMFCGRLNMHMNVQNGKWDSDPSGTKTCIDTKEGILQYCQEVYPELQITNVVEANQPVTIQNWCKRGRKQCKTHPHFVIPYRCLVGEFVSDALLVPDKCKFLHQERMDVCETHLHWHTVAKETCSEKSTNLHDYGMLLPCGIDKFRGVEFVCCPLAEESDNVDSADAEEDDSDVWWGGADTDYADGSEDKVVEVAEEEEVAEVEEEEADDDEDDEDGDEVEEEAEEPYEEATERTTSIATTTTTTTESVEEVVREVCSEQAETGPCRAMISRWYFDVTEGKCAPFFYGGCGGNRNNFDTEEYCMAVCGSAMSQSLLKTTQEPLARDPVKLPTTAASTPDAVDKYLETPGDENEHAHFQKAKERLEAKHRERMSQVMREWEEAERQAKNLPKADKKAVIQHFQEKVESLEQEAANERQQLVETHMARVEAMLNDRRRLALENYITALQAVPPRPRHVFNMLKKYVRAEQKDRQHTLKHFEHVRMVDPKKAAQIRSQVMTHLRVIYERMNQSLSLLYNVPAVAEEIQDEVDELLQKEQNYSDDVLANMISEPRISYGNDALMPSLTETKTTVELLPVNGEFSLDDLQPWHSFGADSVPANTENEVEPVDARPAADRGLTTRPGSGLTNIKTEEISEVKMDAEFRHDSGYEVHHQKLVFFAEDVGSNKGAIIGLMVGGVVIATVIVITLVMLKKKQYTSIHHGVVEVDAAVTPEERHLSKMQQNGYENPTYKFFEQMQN

[8] = Permeability of the compound in pH 7.4 PBS/EtOH at 100 ug/ml after 18 hrs by PAMPA-BBB assay; assay type: ADME; settings: dose 100 µg/ml, read-out: permeability
[9] = target: Amyloid-beta precursor protein (Homo sapiens) (UniProt P05067); assay: Disaggregation of self-induced amyloid beta (1 to 42) (unknown origin) preformed fibrils at 25 uM measured after 24 hrs by thioflavin-T fluorescence assay relative to control
[10] = Inhibition of Cu2+-induced amyloid beta (1 to 42 residues) aggregation at 25 uM after 24 hrs by thioflavin T-based fluorescence assay relative to control
PC-12 [11] = assay: Neuroprotective activity against H2O2-induced cytotoxicity in rat PC12 cells assessed as increase in cell viability at 10 uM preincubated for 2 hrs followed by H2O2 addition and measured after 24 hrs by MTT assay; assay type: functional, cell-based; settings: time 26.0 hrs
Acetylcholinesterase [12] = target: T2, Acetylcholinesterase; assay: Inhibition of human AChE at 10 uM using acetylthiocholine iodide as substrate incubated for 15 mins by Ellman's method relative to control
[13] = target: T1, Amine oxidase [flavin-containing] B; assay: Inhibition of recombinant human MAOB using kynuramine as substrate preincubated for 30 mins followed by substrate addition and measured after 30 mins by fluorescence assay
[14] = Cytotoxicity against rat PC-12 cells assessed as cell viability at 100 uM measured after 2 hrs by MTT assay relative to control; assay type: cell-based; settings: read-out: Activity
PC-12 [15] = assay: Neuroprotective activity against H2O2-induced cytotoxicity in rat PC12 cells assessed as increase in cell viability preincubated for 2 hrs followed by H2O2 addition and measured after 24 hrs by MTT assay; assay type: functional, cell-based; settings: dose 1-50 µM, time 26.0 hrs
PC-12 [16] = assay: Cytotoxicity against rat PC-12 cells assessed as effect on cell viability up to 50 uM measured after 2 hrs by MTT assay; assay type: cell-based; settings: pc-12, 2 h
[17] = Metal chelating activity assessed as compound-Fe2+ complex formation by measuring induction of red shift at 37.5 uM measured after 2 hrs by UV-visible spectrometric method
Mus musculus [18] = assay: Memory improvement effect in ig dosed Kunming mouse model of scopolamine-induced memory impairment assessed as increase in latency time administered once daily for 7 days followed by scopolamine challenge 30 mins prior to training on day 6 measured on day 7 by passive avoidance test; assay type: functional, organism-based; settings: dose 0.19-4.75 mg/kg, time 7.0 day
PC-12 [19] = assay: Neuroprotective activity against H2O2-induced cytotoxicity in rat PC12 cells assessed as cell viability at 50 uM preincubated for 2 hrs followed by H2O2 addition and measured after 24 hrs by MTT assay (reference value: 53.1%); assay type: cell-based; settings: PC-12, 24 h, time 26 hrs, read-out: Activity
[20] = Metal chelating activity assessed as compound-Al3+ complex formation by measuring induction of blue shift at 37.5 uM measured after 2 hrs by UV-visible spectrometric method
[21] = Metal chelating activity assessed as compound-Zn2+ complex formation by measuring induction of red shift at 37.5 uM measured after 2 hrs by UV-visible spectrometric method
[22] = Metal chelating activity assessed as compound-Cu2+ complex formation by measuring induction of red shift at 37.5 uM measured after 2 hrs by UV-visible spectrometric method
Mus musculus [23] = assay: Memory improvement effect in ig dosed Kunming mouse model of scopolamine-induced memory impairment assessed as reduction in number of errors administered once daily for 7 days followed by scopolamine challenge 30 mins prior to training on day 6 measured on day 7 by passive avoidance test; assay type: functional, organism-based; settings: dose 0.19-4.75 mg/kg, time 7.0 day
Mus musculus [24] = assay: Reversal of scopolamine-induced memory impairment in ig dosed Kunming mouse assessed as increase in ACh level in cerebral cortex administered once daily for 7 days followed by scopolamine challenge 30 mins prior to training trail on day 6 measured on day 7; assay type: functional, organism-based; settings: dose 0.19-4.75 mg/kg, time 7.0 day
Acetylcholinesterase [25] = target: T3, Acetylcholinesterase; assay: Competitive inhibition of Electrophorus electricus AChE using varying levels of acetylthiocholine iodide as substrate preincubated for 15 mins followed by substrate addition and measured for 15 mins by Ellman's method based Lineweaver-Burk plot analysis
[26] = Metal chelating activity assessed as mole fraction required to show 1:1 stoichiometry for compound-Cu2+ complex formation measured after 30 mins
[27] = target: Acetylcholinesterase (Electrophorus electricus) (UniProt O42275); assay: Inhibition of Electrophorus electricus AChE at 10 uM using acetylthiocholine iodide as substrate incubated for 15 mins by Ellman's method relative to control
Chain of Acetylcholinesterase (Electrophorus electricus) (O42275 24-633 limits assumed): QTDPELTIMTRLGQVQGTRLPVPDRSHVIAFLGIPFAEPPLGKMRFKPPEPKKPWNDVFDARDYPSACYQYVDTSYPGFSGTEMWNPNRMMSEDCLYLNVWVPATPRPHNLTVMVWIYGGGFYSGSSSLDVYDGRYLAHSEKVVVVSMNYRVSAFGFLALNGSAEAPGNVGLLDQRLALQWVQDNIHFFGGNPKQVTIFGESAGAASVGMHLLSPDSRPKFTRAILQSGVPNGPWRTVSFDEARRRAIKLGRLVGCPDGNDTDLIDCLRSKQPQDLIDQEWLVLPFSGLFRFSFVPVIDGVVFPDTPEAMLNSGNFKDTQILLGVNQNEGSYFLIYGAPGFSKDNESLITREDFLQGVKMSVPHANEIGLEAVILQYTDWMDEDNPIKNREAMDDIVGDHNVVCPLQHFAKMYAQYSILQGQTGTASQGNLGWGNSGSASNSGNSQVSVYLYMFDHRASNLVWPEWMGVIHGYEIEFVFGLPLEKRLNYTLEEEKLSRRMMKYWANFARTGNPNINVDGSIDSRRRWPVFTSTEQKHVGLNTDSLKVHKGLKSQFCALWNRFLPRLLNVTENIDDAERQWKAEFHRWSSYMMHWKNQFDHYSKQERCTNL

Plasma [28] = assay: Antiplatelet activity in rat platelet-rich plasma assessed as inhibition of ADP-induced platelet aggregation preincubated for 30 mins followed by ADP addition measured within 5 mins by aggregometry; assay type: functional
Mus musculus [29] = assay: Memory improvement effect in Kunming mouse model of scopolamine-induced memory impairment assessed as increase in latency time at 5 mg/kg, ig administered once daily for 7 days followed by scopolamine challenge 30 mins prior to training on day 6 measured on day 7 by passive avoidance test; assay type: functional, organism-based; settings: time 7.0 day
Mus musculus [30] = assay: Reversal of scopolamine-induced memory impairment in Kunming mouse assessed as increase in ACh level in cerebral cortex at 5 mg/kg, ig administered once daily for 7 days followed by scopolamine challenge 30 mins prior to training trail on day 6 measured on day 7; assay type: functional, organism-based; settings: time 7.0 day
Mus musculus [31] = assay: Memory improvement effect in Kunming mouse model of scopolamine-induced memory impairment assessed as reduction in number of errors at 5 mg/kg, ig administered once daily for 7 days followed by scopolamine challenge 30 mins prior to training on day 6 measured on day 7 by passive avoidance test; assay type: functional, organism-based; settings: time 7.0 day
PC-12 [32] = assay: Neuroprotective activity against H2O2-induced cytotoxicity in rat PC12 cells assessed as increase in cell viability at 100 uM preincubated for 2 hrs followed by H2O2 addition and measured after 24 hrs by MTT assay; assay type: functional, cell-based; settings: time 26.0 hrs

SMILES: COc1cc2c(cc1OC)/C(=C\c1ccc(O)c(N3CCCCC3)c1)OC2=O
- inhibition at 10 µM [1]: 34.8%
- inhibition at […], 10 µM [2]: 27.6%
- IC50 (Acetylcholinesterase [3]): 0.338 nM
- IC50 (Acetylcholinesterase [4]): 0.0704 nM
- inhibition at 33 µM (Plasma [5]): 18.4%
- Activity [6]: 1.95 equiv
- inhibition at 0.5 h, 10 µM (MAO-A): 5.67%
- inhibition [7]: 15.8%
- Papp at 18 h, 100 ug/ml [8]: 11.2 ×10⁻⁶ cm/s

SMILES: CCCCC1OC(=O)c2ccccc21 (racemic) [RAC-3-N-BUTYLPHTHALIDE]
- Activity [9]: < 5%
- inhibition at […], 10 µM [2]: < 5%
- inhibition [10]: < 5%
- inhibition at 33 µM (Plasma [5]): 9.5%
- Activity (PC-12 [11]): Active
- Activity [6]: 0.2 equiv
- inhibition (Acetylcholinesterase [12]): < 5%

SMILES: CCN(CC)c1cc(/C=C2\OC(=O)c3cc(OC)c(OC)cc32)ccc1O
- inhibition at 10 µM [1]: 46.2%
- Activity [9]: 19.9%
- inhibition at […], 10 µM [2]: 15.7%
- IC50 (Acetylcholinesterase [3]): 1.55 nM
- IC50 (Acetylcholinesterase [4]): 0.383 nM
- inhibition [10]: < 5%
- inhibition at 33 µM (Plasma [5]): 45.1%
- Activity [6]: 2.14 equiv
- inhibition at 0.5 h, 10 µM (MAO-A): < 5%
- inhibition [7]: 25.9%

SMILES: COc1cc2c(cc1OC)/C(=C/c1ccc(O)c(N3CCCCC3)c1)OC2=O
- IC50 [13]: 5880 nM
- viability at 2 h, 100 µM [14]: 81.2%
- Activity [9]: 11.8%
- inhibition at […], 10 µM [2]: 22.4%
- Activity (PC-12 [15]): Dose-dependent effect
- IC50 (Acetylcholinesterase [3]): 0.616 nM
- IC50 (Acetylcholinesterase [4]): 0.0918 nM
- Activity (PC-12 [16]): Non-Toxic
- inhibition [10]: 19.9%
- Activity [17]: Active
- Activity (Mus musculus [18]): Dose-dependent effect
- viability at 50 µM (PC-12 [19]): 79%
- Activity [20]: Active
- Activity [21]: Active
- Activity [22]: Active
- inhibition at 33 µM (Plasma [5]): 32.5%
- Activity (Mus musculus [23]): Dose-dependent effect
- Activity [6]: 2.05 equiv
- Activity (Mus musculus [24]): Dose-dependent effect
- inhibition at 0.5 h, 10 µM (MAO-A): < 5%
- Ki (Acetylcholinesterase [25]): 0.082 nM
- inhibition [7]: 34.2%
- Activity (mole fraction) [26]: 0.88
- Papp at 18 h, 100 ug/ml [8]: 12.3 ×10⁻⁶ cm/s

SMILES: COc1cc2c(cc1OC)/C(=C/c1ccc(N3CCN(C)CC3)c(O)c1)OC2=O
- IC50 [13]: 1550 nM
- inhibition at […], 10 µM [2]: < 5%
- inhibition [27]: 42.4%
- Activity [6]: 1.36 equiv
- inhibition at 0.5 h, 10 µM (MAO-A): 16.5%

SMILES: O=C1CCc2cc(OCCCCc3nnnn3C3CCCCC3)ccc2N1 [CILOSTAZOL]
- IC50 (Plasma [28]): 65100 nM

SMILES: COc1cc2c(cc1OC)C(=O)C(CC1CCN(Cc3ccccc3)CC1)C2 (stereo not given)
- Activity (Mus musculus [29]): Active
- Activity (Mus musculus [30]): Active
- Activity (Mus musculus [31]): Active

SMILES: Cc1c(C)c2c(c(C)c1O)CCC(C)(C(=O)O)O2 (stereo not given)
- Activity (PC-12 [32]): Active
